Source: US20250115581A1, “SUBSTITUTED PIPERIDINES AS CK1A DEGRADERS” (Monte Rosa Therapeutics, Inc., priority 2022, published 2025)
pIC50: −log10 of the molar value.

Assays:
[1] = target: T1, CK1α (Homo sapiens, UniProt P48729+Q96SW2); test: CK1α NanoBit Assay (HiBiT-tagged CSNK1A1 in HEK293 cells, luminescence); assay type: cell-based; conditions: 24 h
T1 construct: HEK293 clonal lines with CRISPR KI HiBiT tag on CSNK1A1; host or cells: HEK293 clonal line, CRISPR knock-in HiBiT at the CSNK1A1 locus, stably expressing LgBiT
Experimental: HEK293 clonal lines with CRISPR KI HiBiT tag on CSNK1A1 and stably expressing LgBiT protein were obtained from Promega (Madison, WI). Cells were plated at 5000 cells per well using Multiflo (BioTek) in 384-well white solid bottom plates (Corning, 3570BC) in 25 μl volume in DMEM media (DMEM, high glucose, HEPES, no phenol red (ThermoFisher Scientific, 21063029)) containing 10% FBS (Corning, 35-075-CV), 1% Penicillin/Streptomycin ((ThermoFisher Scientific, 15140-122), and 0.2% Endurazine (Nano-Glo Endurazine Live Cell Substrate (Promega, N2571)). Cells were incubated for 16 hours at 37° C., 5% CO2. Depending on experiment 25 or 75 nL of a compound at 10 mM were added into the plate using an Echo® 650 liquid handler (Labcyte) to achieve final concentration of 10 or 30 μM in wells. Cells were incubated at 37° C., 5% CO2 for 24 hours and then signal was read on a Pherastar FSX using “LUM plus” optic module.
Data analysis was performed in Scinamic (Scinamic, Cambridge, MA). Luminescence response (R) was calculated by the formula: response=100*(S−N)/(P−N) where S is the signal of the well, N and P the mean negative and positive control values respectively of the same plate. The luminescence response was then fitted in Scinamic using a 3-parameter agonist logistic fit (hillslope=1, EC50>0, top/bottom unconstrained).
DC50 data are reported in Table 2 for compounds in Table 1. In Table 2 below, According to the code, A represents a DC50 value of ≤0.1 μM, B represents a DC50 value >0.1 μM and ≤1 μM, C represents an DC50 value >1 μM.

[2] = target: CRBN/DDB1 (Homo sapiens, UniProt Q96SW2); test: HTRF binding assay (displacement of Cy5-thalidomide probe from CRBN/DDB1); conditions: CRBN/DDB1 2.5 nM, Cy5-Thalidomide 100 nM, 30 min; geometric mean; read-out: HTRF_Thali_Disp_DR_geo_IC50
From the text: Binding of test compounds to CRBN/DDB1 was monitored in an HTRF assay using 1-[5-({2-[2-(2-{[2-(2,6-dioxopiperidin-3-yl)-1,3-dioxo-2,3-dihydro-1H-isoindol-4-yl]oxy}acetamido)ethoxy]ethyl}carbamoyl)pentyl]-3,3-dimethyl-2-[(1E,3E)-5-[(2E)-1,3,3-trimethyl-5-sulfo-2,3-dihydro-1H-indol-2-ylidene]penta-1,3-dien-1-yl]-3H-indol-1-ium-5-sulfonate as a fluorescent probe. In this assay, compounds displace the fluorescently labeled thalidomide-based probe bound to CRBN and fluorescence is monitored with increasing compound concentration. Assays were conducted in Greiner white 384 well HiBase plates (Cat. No 784075-25) in 10 μL total volume. A one pot detection solution of CRBN/DDB1 (2.5 nM), anti-His Terbium Cryptate Gold (1×, PerkinElmer Cat. #: 61HI2TLB), and Cy5-Thalidomide (100 nM, Tenova Cat.: T52461) was prepared in 20 mM HEPES, 20 mM NaCl, 0.2 mM TCEP, 0.2 mM EDTA, and 0.005% Tween20 was dispensed to each assay plate. Test compounds were stored in dry, ambient temperatures at 10 mM. A 10-point, 1:3 dilution series was prepared from 10 mM stock concentrations in Echo-compatible LDV plates. 10 nL of each compound dilution series was dispensed into assays wells using an Echo 650 (Labcyte inc. USA). 10 nL of 10 mM lenalidomide (Selleckchem Cat no. S1029) was transferred into the active-control wells for the assay and 10 nL of DMSO was transferred into the negative control wells. The assay was then allowed to incubate for 30 min at ambient temperature after transferring the test compounds. Plate measurements were taken on a Pherastar FSX (BMG Labtech, Germany) using the HTRF Red filter (Ex. 337 nm, em1: 620 nm, em2: 665 nm) (Flashes: 50, Integration time: 60-400 μs, Z-height: 10 mm, Ratio-multiplier: 10,000). Analysis, HTRF ratio and IC50 values were derived using KNIME analytics (KNIME Zurich) transformation and fitting within Collaborative Drug Discovery (Collaborative Drug Discovery USA) using a 4-parameter logistic fit. HTRF ratio calculation was performed using the following formula: […]
where em665 nm represents the measured emission at 665 nm upon excitation at 337 nm and em620 nm the measured emission at 620 nm upon excitation at 337 nm. The 4 parameter logistic fitting model was performed using the following formula: […]
where Y represents the HTRF ratio response (as defined previously), X the compound concentration in μM, Ymin the minimum response plateau, Ymax the maximum response plateau, IC50 the concentration of […] that gives a response half way between Ymin and Ymax and HillSlope the steepness of the family of curves. No fitting model constraints was applied on Ymin, or Ymax whilst IC50>0 and −0.5>HillSlope>−3 Cheng-Prusoff transformation
Ki values were derived from the geometric mean of the IC50 values using the Cheng-Prusoff transformation:
where [L] represents the concentration of fluorescent probe in […], Kd the affinity (binding constant) of the fluorescent probe in units of μM and IC50 the concentration of agonist that gives a response halfway between Ymin and Ymax (as described in 1.2.1)
Analysis and IC50 values were derived using KNIME analytics (KNIME, Zurich) transformation and fitting within Collaborative Drug Discovery (Collaborative Drug Discovery, USA) as described in 1.2.1. Ki values were derived from the geometric mean of the IC50 values using the Cheng-Prusoff transformation as described in 2.2.2. Data was visualized in GraphPad Prism 8.1.2 (GraphPad, USA) and reported as mean and standard deviation. Microsoft Office Excel 2012 (Redmond, WA) was used for calculation of mean and standard deviation.
IC50 data are reported in Table 3 for compounds in Table 1. In Table 3 below, According to the code, A represents a IC50 value of ≤0.1 μM, B represents a IC50 value >0.1 μM and ≤1 μM, C represents an IC50 value >1 μM.

Chain of CRBN/DDB1 (Q96SW2 whole entry): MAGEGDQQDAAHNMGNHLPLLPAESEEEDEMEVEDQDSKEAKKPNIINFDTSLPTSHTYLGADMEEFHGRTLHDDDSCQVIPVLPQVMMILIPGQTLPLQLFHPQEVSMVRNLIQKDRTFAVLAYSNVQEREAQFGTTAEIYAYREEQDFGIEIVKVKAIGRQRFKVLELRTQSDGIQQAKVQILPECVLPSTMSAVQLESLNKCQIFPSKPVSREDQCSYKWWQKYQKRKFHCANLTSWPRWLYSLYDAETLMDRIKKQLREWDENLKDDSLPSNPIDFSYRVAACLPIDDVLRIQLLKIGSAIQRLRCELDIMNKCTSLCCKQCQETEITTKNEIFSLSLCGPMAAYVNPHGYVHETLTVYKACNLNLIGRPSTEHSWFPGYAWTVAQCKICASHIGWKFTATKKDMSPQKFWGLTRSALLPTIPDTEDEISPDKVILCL
Chain of CRBN/DDB1 (Q16531 whole entry partner): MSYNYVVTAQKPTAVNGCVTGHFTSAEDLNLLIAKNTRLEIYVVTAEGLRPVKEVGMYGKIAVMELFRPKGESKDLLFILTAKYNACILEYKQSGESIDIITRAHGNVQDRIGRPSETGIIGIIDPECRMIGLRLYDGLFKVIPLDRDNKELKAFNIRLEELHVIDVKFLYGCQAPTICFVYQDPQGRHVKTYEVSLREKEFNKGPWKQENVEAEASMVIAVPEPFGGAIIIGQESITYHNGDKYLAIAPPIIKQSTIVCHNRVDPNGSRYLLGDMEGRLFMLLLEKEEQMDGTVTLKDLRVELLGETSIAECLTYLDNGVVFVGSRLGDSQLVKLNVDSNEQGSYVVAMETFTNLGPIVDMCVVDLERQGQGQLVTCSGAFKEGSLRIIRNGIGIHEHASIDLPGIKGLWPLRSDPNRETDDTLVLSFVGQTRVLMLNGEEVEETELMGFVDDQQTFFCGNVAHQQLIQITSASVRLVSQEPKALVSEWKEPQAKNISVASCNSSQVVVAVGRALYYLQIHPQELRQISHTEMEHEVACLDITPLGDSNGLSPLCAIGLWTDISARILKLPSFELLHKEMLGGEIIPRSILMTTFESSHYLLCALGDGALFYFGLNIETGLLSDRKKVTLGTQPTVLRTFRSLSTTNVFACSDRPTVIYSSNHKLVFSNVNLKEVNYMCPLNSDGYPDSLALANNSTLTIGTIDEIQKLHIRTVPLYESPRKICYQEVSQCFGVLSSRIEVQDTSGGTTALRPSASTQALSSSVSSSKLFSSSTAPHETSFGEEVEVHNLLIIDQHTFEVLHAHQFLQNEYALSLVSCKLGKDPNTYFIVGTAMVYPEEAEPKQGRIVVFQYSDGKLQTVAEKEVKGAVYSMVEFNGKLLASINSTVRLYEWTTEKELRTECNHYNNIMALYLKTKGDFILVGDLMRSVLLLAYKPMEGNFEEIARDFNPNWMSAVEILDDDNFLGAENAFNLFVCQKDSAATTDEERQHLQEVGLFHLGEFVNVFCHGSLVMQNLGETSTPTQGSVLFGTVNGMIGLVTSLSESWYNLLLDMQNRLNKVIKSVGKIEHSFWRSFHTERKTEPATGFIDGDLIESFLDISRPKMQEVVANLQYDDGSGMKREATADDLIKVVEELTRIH
T1 sequence (P48729 whole entry): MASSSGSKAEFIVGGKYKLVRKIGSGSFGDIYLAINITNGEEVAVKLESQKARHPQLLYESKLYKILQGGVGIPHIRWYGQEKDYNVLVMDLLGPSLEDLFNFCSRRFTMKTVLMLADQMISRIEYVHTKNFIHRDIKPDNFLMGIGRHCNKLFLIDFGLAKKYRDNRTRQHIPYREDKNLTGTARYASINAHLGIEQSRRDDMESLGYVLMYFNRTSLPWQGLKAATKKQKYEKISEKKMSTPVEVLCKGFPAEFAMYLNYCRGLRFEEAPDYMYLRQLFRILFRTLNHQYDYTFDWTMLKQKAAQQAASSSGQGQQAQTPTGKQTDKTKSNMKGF
T1 sequence (Q96SW2 whole entry): as the sequence (Q96SW2 whole entry) above
T1 sequence (Q16531 whole entry partner): as the sequence (Q16531 whole entry partner) above

SMILES	DC50 [1]	pIC50 [2]
COc1ccc(-n2ccn(-c3ccc4c(c3)CN(C3CCC(=O)NC3=O)C4=O)c2=O)cc1 (stereo not drawn) [Compound 102, 3-(5-(3-(4-methoxyphenyl)-2-oxo-2,3-dihydro-1H-imidazol-1-yl)-1-oxoisoindolin-2-yl) piperidine-2,6-dione]	> 1 µM	6.00 to 7.00
Cc1cc(N2CCN(c3ccc4c(c3)CN(C3CCC(=O)NC3=O)C4=O)C2=O)ccn1 (stereo not drawn) [Compound 103, 3-(5-(3-(2-methylpyridin-4-yl)-2-oxoimidazolidin-1-yl)-1-oxoisoindolin-2-yl)piperidine-2,6-dione]	> 1 µM	
O=C1CCC(N2Cc3cc(N4CCN(c5ccccn5)C4=O)ccc3C2=O)C(=O)N1 (stereo not drawn) [Compound 105, 3-(1-oxo-5-(2-oxo-3-(pyridin-2-yl)imidazolidin-1-yl)isoindolin-2-yl)piperidine-2,6-dione]	≤ 0.1 µM	< 6.00
O=C1CCC(N2Cc3cc(N4C[C@@H](C(F)(F)F)N(c5ccccc5)C4=O)ccc3C2=O)C(=O)N1 (stereo partly drawn) [Compound 106, 3-(1-oxo-5-((S)-2-oxo-3-phenyl-4-(trifluoromethyl)imidazolidin-1-yl)isoindolin-2-yl)piperidine-2,6-dione]	0.1 to 1 µM	6.00 to 7.00
O=C1CCC(N2Cc3cc(N4C[C@H](C(F)(F)F)N(c5ccccc5)C4=O)ccc3C2=O)C(=O)N1 (stereo partly drawn) [Compound 108, 3-(1-oxo-5-((R)-2-oxo-3-phenyl-4-(trifluoromethyl)imidazolidin-1-yl)isoindolin-2-yl)piperidine-2,6-dione]	> 1 µM	6.00 to 7.00
C[C@H]1CN(c2ccc3c(c2)CN(C2CCC(=O)NC2=O)C3=O)C(=O)N1c1ccccc1 (stereo partly drawn) [Compound 109, 3-(5-((S)-4-methyl-2-oxo-3-phenylimidazolidin-1-yl)-1-oxoisoindolin-2-yl) piperidine-2,6-dione]	≤ 0.1 µM	6.00 to 7.00
Cc1cccc(N2CCN(c3ccc4c(c3)CN(C3CCC(=O)NC3=O)C4=O)C2=O)c1 (stereo not drawn) [Compound 110, 3-(1-oxo-5-(2-oxo-3-(m-tolyl)imidazolidin-1-yl)isoindolin-2-yl)piperidine-2,6-dione]	≤ 0.1 µM	6.00 to 7.00
O=C1CCC(N2Cc3cc(N4CCN(c5ccc(C(F)(F)F)cc5)C4=O)ccc3C2=O)C(=O)N1 (stereo not drawn) [Compound 112, 3-(1-oxo-5-(2-oxo-3-(4-(trifluoromethyl)phenyl)imidazolidin-1-yl)isoindolin-2-yl)piperidine-2,6-dione]	≤ 0.1 µM	6.00 to 7.00
CC1C(C)N(c2ccc3c(c2)CN(C2CCC(=O)NC2=O)C3=O)C(=O)N1c1ccccc1 (stereo not drawn) [Compound 113, 3-(5-(4,5-dimethyl-2-oxo-3-phenylimidazolidin-1-yl)-1-oxoisoindolin-2-yl)piperidine-2,6-dione]	> 1 µM	6.00 to 7.00
O=C1CCC(N2Cc3cc(N4CCN(c5ccc(Cl)cc5)C4=O)ccc3C2=O)C(=O)N1 (stereo not drawn) [Compound 114]	≤ 0.1 µM	6.00 to 7.00

Further lines, results first:

DC50 [1]	pIC50 [2]	SMILES
0.1 to 1 µM	6.00 to 7.00	N#Cc1ccc(N2CCN(c3ccc4c(c3)CN(C3CCC(=O)NC3=O)C4=O)C2=O)cc1 (stereo not drawn) [Compound 115]
≤ 0.1 µM	6.00 to 7.00	O=C1CCC(N2Cc3cc(N4CCN(c5cccc(C(F)(F)F)c5)C4=O)ccc3C2=O)C(=O)N1 (stereo not drawn) [Compound 116, 3-(1-oxo-5-(2-oxo-3-(3-(trifluoromethyl)phenyl)imidazolidin-1-yl)isoindolin-2-yl)piperidine-2,6-dione]
0.1 to 1 µM	6.00 to 7.00	CC1CN(c2ccccc2)C(=O)N1c1ccc2c(c1)CN(C1CCC(=O)NC1=O)C2=O (stereo not drawn) [Compound 117, 3-(5-(5-methyl-2-oxo-3-phenylimidazolidin-1-yl)-1-oxoisoindolin-2-yl)piperidine-2,6-dione]
≤ 0.1 µM	6.00 to 7.00	O=C1CCC(N2Cc3cc(N4CCN(c5cccc(Cl)c5)C4=O)ccc3C2=O)C(=O)N1 (stereo not drawn) [Compound 118, 3-(5-(3-(3-chlorophenyl)-2-oxoimidazolidin-1-yl)-1-oxoisoindolin-2-yl)piperidine-2,6-dione]
≤ 0.1 µM	6.00 to 7.00	CC(C)c1cccc(N2CCN(c3ccc4c(c3)CN(C3CCC(=O)NC3=O)C4=O)C2=O)c1 (stereo not drawn) [Compound 119, 3-(5-(3-(3-isopropylphenyl)-2-oxoimidazolidin-1-yl)-1-oxoisoindolin-2-yl)piperidine-2,6-dione]
≤ 0.1 µM	6.00 to 7.00	CC(C)c1ccc(N2CCN(c3ccc4c(c3)CN(C3CCC(=O)NC3=O)C4=O)C2=O)cc1 (stereo not drawn) [Compound 120, 3-(5-(3-(4-isopropylphenyl)-2-oxoimidazolidin-1-yl)-1-oxoisoindolin-2-yl)piperidine-2,6-dione]
≤ 0.1 µM	6.00 to 7.00	CC1CN(c2ccc3c(c2)CN(C2CCC(=O)NC2=O)C3=O)C(=O)N1c1ccc(C(F)(F)F)nc1 (stereo not drawn) [Compound 121, 3-(5-(4-methyl-2-oxo-3-(6-(trifluoromethyl)pyridin-3-yl)imidazolidin-1-yl)-1-oxoisoindolin-2-yl)piperidine-2,6-dione]
≤ 0.1 µM		Cc1ccc(N2CCN(c3ccc4c(c3)CN(C3CCC(=O)NC3=O)C4=O)C2=O)nc1 (stereo not drawn) [Compound 141, 3-(5-(3-(5-methylpyridin-2-yl)-2-oxoimidazolidin-1-yl)-1-oxoisoindolin-2-yl)piperidine-2,6-dione]
≤ 0.1 µM		O=C1CCC(N2Cc3cc(N4CCN(c5ccc(C6(C(F)(F)F)CC6)cc5)C4=O)ccc3C2=O)C(=O)N1 (stereo not drawn) [Compound 147, 3-(1-oxo-5-(2-oxo-3-(4-(1-(trifluoromethyl)cyclopropyl)phenyl)imidazolidin-1-yl)isoindolin-2-yl)piperidine-2,6-dione]
≤ 0.1 µM		N#Cc1cccc(N2CCN(c3ccc4c(c3)CN(C3CCC(=O)NC3=O)C4=O)C2=O)c1 (stereo not drawn) [Compound 148, 3-(3-(2-(2,6-dioxopiperidin-3-yl)-1-oxoisoindolin-5-yl)-2-oxoimidazolidin-1-yl)benzonitrile]
